Read-outs that look alike come from different tables or passages of the source. Each block holds one compound with its values, some of them ahead of it.
Legend:
[1] = tested on: de novo protein synthesis; set-up: method as in Zalacain et al., 1982; Chan et al., 2004; Keysar et al., 2020; conditions: ref Zalacain et al., 1982; Chan et al., 2004; Keysar et al., 2020; cited from earlier work
glucocorticoid receptor [2] = biological target: T1, glucocorticoid receptor (Homo sapiens, UniProt P04150); test: AR (ARE) luciferase reporter assay, 22RV1 cells with DEX (GR-driven); assay type: cell-based; set-up: AR luciferase reporter assay using 22RV1 cells that express GR; endogenous in cells; host or cells: 22RV1
T1 sequence (P04150 1-777): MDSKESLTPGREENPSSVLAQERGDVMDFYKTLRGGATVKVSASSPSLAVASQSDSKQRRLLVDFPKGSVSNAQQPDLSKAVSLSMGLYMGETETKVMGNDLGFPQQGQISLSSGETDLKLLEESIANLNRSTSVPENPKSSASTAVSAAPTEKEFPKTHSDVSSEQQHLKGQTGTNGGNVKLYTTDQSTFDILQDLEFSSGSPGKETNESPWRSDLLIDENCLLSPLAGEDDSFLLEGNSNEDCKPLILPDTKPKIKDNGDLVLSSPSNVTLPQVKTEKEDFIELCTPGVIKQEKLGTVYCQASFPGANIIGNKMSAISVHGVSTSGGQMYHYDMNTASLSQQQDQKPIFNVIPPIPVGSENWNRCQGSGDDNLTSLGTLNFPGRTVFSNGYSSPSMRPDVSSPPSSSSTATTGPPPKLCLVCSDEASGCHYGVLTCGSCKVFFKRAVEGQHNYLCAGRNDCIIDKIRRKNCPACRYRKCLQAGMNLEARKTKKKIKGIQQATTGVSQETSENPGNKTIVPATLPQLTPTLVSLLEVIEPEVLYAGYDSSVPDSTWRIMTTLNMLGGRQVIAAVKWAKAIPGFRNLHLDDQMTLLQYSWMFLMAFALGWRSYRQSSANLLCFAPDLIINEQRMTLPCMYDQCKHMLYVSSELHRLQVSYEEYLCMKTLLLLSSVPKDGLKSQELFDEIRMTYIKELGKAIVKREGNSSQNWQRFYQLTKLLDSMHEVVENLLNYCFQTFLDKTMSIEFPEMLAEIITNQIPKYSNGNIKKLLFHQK
Experimental: (§1) The 22RV1, LNCaP and PC3 cell lines were stably transfected with a PGL4.2 luciferase reporter (Promega, Madison, USA). This reporter contains a sequence (3xgtaattgcagaacagcaagtgctagctctc) representing the wild type of Androgen Response Element (ARE) derived from the Prostate-Specific Antigen (PSA) promoter. […] This transfection was accomplished using Lipofectamine 3000 (Thermo Fisher Scientific, Waltham, MA). Stable clones were selected and maintained with puromycin (0.5 μg/mL). […] The pcDNA5 plasmid (Thermo Fisher Scientific, Waltham, MA), carrying the full open reading frame of GR, was transfected into LNCaP cells, and hygromycin (50 μg/mL) was employed to select and maintain stable clones.
(§2) 10^4 reporter cells per well of 96-well plate were seeded in RPMI1640 media supplemented with 5% dialysis activated carbon treated FBS, 50 μg/mL Kanamycin in a 37°C, 5% CO2 incubator for 48 h. Cells were treated with herbal extracts at 30, 100, 300, and 600 μg/mL for 24 h in a 37°C-CO2 incubator. […] Dexamethasone (50 nM) was used to stimulate glucocorticoid receptor activity. Cells were lysed using luciferase lysis buffer after which luciferase buffer with luciferin was added to generate luminescence. Luminescence was recorded using a luminescence microplate reader. The IC50 is the concentration of treatment agent required to reduce the measured luminescence to half of its maximal value.
(§3) GAPDH was used as protein loading control for normalization. […] Details of experimental procedures are given in Materials and methods.

glucocorticoid receptor [3] = biological target: T1, glucocorticoid receptor; test: AR (ARE) luciferase reporter assay, PC3 cells (no ligand or DEX, GR-driven); assay type: cell-based; set-up: PC3 cells that only express GR and respond solely to DEX; endogenous in cells; host or cells: PC3; conditions: 24 h
Experimental: as §1, §2, §3

glucocorticoid receptor [4] = biological target: T1, glucocorticoid receptor; test: AR (ARE) luciferase reporter assay, LNCaP-GR cells with DEX (GR-driven); assay type: cell-based
Experimental: as §1, §2, §3

[5] = tested on: castration-resistant prostate cancer (CRPC); conditions: cited from earlier work
22RV1 tumor = test: 22RV1 xenograft tumor growth in NCR-nude mice; assay type: in vivo, human; conditions: enzalutamide alone, 5 mg/kg po QD, 7 days
Source text: Differences were considered statistically significant at p < 0.05.

AR = tested on: AR; set-up: method as in Rice et al., 2019; conditions: ref Rice et al., 2019; cited from earlier work
Source text: Prostate cancer is the second leading cause of cancer death among men in the United States. […] Therefore, androgen or Androgen R targeted therapy has become a major focus for the prevention ...

[6] = ref Rice et al., 2019; cited from earlier work
Source text: Prostate cancer is the second leading cause of cancer death among men in the United States. According to the National Cancer Institute over 3 million men in the United States are living with prostate cancer, with 288,300 additional cases and 34,700 deaths expected in 2023. Androgen receptor (AR) signaling plays a key role in development of Benign prostatic hyperplasia (BPH) and prostate cancer ([Shiota et al., 2011]; [Gioeli and Paschal, 2012]; [Mills, 2014]; [Wong et al., 2014]; [Tan et al., 2015]). Therefore, androgen or Androgen R targeted therapy has become a major focus for the prevention ...

androgen receptor [7] = biological target: T2, androgen receptor (Homo sapiens, UniProt P10275, T878A); test: AR (ARE) luciferase reporter assay, LNCaP cells (no ligand or DHT); assay type: cell-based
T2 construct: LNCaP cells that only express AR and respond solely to DHT; endogenous in cells; host or cells: LNCaP; LNCaP-GR
T2 sequence (P10275 1-920 T878A): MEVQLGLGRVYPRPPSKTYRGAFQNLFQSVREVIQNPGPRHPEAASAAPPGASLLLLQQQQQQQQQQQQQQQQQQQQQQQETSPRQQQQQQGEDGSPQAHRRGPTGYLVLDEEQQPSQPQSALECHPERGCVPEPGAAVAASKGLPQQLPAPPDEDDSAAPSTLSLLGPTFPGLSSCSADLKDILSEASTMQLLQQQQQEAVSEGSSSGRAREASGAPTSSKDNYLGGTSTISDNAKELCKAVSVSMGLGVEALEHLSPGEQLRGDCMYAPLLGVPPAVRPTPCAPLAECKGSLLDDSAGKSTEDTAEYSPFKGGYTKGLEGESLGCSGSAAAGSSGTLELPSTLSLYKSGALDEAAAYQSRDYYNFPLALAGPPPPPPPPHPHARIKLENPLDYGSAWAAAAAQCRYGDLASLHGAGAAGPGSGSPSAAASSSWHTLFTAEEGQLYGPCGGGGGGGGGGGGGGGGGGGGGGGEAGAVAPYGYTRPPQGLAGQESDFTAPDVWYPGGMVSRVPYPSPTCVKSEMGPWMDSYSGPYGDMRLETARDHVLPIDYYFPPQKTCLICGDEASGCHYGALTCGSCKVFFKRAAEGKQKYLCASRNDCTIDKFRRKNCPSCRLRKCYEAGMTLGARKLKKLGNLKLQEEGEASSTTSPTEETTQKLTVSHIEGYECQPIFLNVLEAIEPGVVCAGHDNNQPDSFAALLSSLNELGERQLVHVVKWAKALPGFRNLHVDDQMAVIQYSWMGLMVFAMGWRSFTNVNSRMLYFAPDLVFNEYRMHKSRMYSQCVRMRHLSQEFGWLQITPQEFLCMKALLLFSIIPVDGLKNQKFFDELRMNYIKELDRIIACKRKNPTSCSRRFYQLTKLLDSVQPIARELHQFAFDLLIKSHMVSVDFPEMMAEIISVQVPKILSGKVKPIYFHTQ
Experimental: as §1, §2, §3

androgen receptor [8] = biological target: androgen receptor (Homo sapiens, UniProt P10275); assay type: cell-based
Experimental: as §1
as §2, with “value. […]” for “value.”

androgen receptor [9] = biological target: T2, androgen receptor; test: cell-based
Experimental: as §1, §2, §3

[10] = IC50 for ARE-luciferase reporter, ligand: -
[11] = IC50 for ARE-luciferase reporter, ligand: DEX (50 nM)
[12] = of patients, ref Cattrini et al., 2022
[13] = IC50 for ARE-luciferase reporter
[14] = read-out: IC50 for ARE-luciferase reporter

androgen receptor (Homo sapiens, UniProt P10275), sequence (P10275 whole entry): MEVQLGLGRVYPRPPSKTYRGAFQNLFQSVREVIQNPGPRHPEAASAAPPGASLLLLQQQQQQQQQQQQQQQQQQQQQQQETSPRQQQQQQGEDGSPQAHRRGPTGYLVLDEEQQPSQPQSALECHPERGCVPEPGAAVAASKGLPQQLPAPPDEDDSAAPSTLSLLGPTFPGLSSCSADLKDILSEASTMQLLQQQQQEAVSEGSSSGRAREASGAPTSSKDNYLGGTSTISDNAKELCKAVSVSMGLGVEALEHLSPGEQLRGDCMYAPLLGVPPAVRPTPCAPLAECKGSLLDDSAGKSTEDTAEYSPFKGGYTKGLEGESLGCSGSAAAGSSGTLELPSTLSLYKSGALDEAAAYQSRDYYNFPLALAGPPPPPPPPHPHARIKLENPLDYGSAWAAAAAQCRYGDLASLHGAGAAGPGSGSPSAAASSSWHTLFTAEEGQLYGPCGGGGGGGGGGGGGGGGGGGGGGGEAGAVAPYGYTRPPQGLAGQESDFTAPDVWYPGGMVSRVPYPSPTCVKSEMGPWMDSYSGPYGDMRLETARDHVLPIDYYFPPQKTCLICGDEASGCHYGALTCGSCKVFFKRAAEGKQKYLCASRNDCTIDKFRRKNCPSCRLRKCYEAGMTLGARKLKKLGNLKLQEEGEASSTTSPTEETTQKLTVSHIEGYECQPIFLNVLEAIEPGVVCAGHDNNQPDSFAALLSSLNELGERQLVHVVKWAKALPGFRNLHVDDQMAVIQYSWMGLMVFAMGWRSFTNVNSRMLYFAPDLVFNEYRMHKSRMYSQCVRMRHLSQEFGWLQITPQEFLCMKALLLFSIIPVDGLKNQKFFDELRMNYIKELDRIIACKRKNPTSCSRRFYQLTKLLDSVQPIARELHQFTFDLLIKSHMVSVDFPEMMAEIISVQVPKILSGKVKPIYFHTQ

Compound: Bouvardin
inhibition of de novo protein synthesis [1]: can inhibit de novo protein synthesis

Compound: COc1ccc(C[C@H]2C(=O)N[C@@H](C)C(=O)N(C)[C@H]3Cc4ccc(cc4)Oc4cc(ccc4OC)C[C@@H](C(=O)N[C@H](C)C(=O)N[C@@H](C)C(=O)N2C)N(C)C3=O)cc1 [RA-VII]
IC50 (glucocorticoid receptor [2]): 13.5 ± 5 nM
IC50 (glucocorticoid receptor [3]; [10]): 32 ± 9 nM
IC50 (glucocorticoid receptor [3]; [11]): 3.6 ± 0.6 nM
IC50 (glucocorticoid receptor [4]): 5.6 ± 2.3 nM

inhibition of DEX-induced luciferase activity (glucocorticoid receptor [3]; DEX 50 nM): no effect
inhibition of DEX-induced luciferase activity (glucocorticoid receptor [4]; LNCaP-GR, DEX 50 nM, 24 h): no effect
Compound: CNC(=O)c1ccc(N2C(=S)N(c3ccc(C#N)c(C(F)(F)F)c3)C(=O)C2(C)C)cc1F [Enzalutamide]
grade 3 adverse events or higher [5, 12]: approximately 25%
most common side effects ([5]; ref Cattrini et al., 2022): fatigue, hypertension, diarrhea, and weight loss
22RV1 tumor growth (22RV1 tumor): not found to substantially decrease the growth of 22RV1 tumors
inhibition of Dex-induced luciferase activity (glucocorticoid receptor [2]; 22RV1, DEX 50 nM, 24 h): unable to inhibit GR-mediated luciferase activity

Compound: CNC(=O)c1ccc(N2C(=S)N(c3cnc(C#N)c(C(F)(F)F)c3)C(=O)C23CCC3)cc1F [apalutamide]
grade 3 adverse events or higher [5, 12]: approximately 25%
most common side effects ([5]; ref Cattrini et al., 2022): fatigue, hypertension, diarrhea, and weight loss
selectivity and potency against AR (AR): higher selectivity and potency against AR
brain penetrance [6]: reductions in brain penetrance

Compound: COc1ccc(C[C@H]2C(=O)N[C@@H](C)C(=O)N(C)[C@H]3Cc4ccc(cc4)Oc4cc(ccc4O)C[C@@H](C(=O)N[C@H](C)C(=O)N[C@@H](CCC(=O)O)C(=O)N2C)N(C)C3=O)cc1 [RA-XI]
IC50 (androgen receptor [7]; [13]): > 250 nM
IC50 (androgen receptor [7]; [14]): > 250 nM
IC50 (glucocorticoid receptor [2]): > 250 nM
IC50 (glucocorticoid receptor [3]; [10]): > 250 nM
IC50 (glucocorticoid receptor [3]; [11]): > 250 nM
IC50 (glucocorticoid receptor [4]): > 250 nM
comparative potency (anti-AR and anti-GR activity) (androgen receptor [8]): significantly reduce the anti-AR and anti-GR activity
inhibition of luciferase activity in any assay (androgen receptor [8]): did not inhibit luciferase activity in any assay
IC50 (androgen receptor [9]; [13]): > 250 nM
IC50 (androgen receptor [9]; [14]): > 250 nM

Compound: COc1ccc(C[C@H]2C(=O)N[C@@H](C)C(=O)N(C)[C@H]3Cc4ccc(cc4)Oc4cc(ccc4O)C[C@@H](C(=O)N[C@H](C)C(=O)N[C@@H](C)C(=O)N2C)N(C)C3=O)cc1 [RA-V, Deoxybouvardin]
IC50 (androgen receptor [7]; LNCaP, ligand: +DHT (25 nM), 24 h, read-out: IC50 for ARE-luciferase reporter): 5.3 ± 1.4 nM
IC50 (androgen receptor [7]; LNCaP, ligand: -, 24 h, read-out: IC50 for ARE-luciferase reporter): > 100 nM
IC50 (glucocorticoid receptor [2]; 22RV1, ligand: +DEX (50 nM), 24 h, read-out: IC50 for ARE-luciferase reporter): 22 ± 5 nM
IC50 (glucocorticoid receptor [3]; ligand: -, read-out: IC50 for ARE-luciferase reporter): 40 ± 19 nM
IC50 (glucocorticoid receptor [3]; ligand: DEX (50 nM), read-out: IC50 for ARE-luciferase reporter): 5.7 ± 2.3 nM
IC50 (glucocorticoid receptor [4]; LNCaP-GR, ligand: +DEX (50 nM), 24 h, read-out: IC50 for ARE-luciferase reporter): 7.8 ± 2.2 nM
IC50 (androgen receptor [9]; LNCaP-GR, ligand: +DHT (25 nM), 24 h, read-out: IC50 for ARE-luciferase reporter): 4.1 ± 1.3 nM
IC50 (androgen receptor [9]; LNCaP-GR, ligand: -, 24 h, read-out: IC50 for ARE-luciferase reporter): > 100 nM

Compound: CC(O)c1cc(C(=O)N[C@@H](C)Cn2ccc(-c3ccc(C#N)c(Cl)c3)n2)[nH]n1 (stereo partly shown) [darolutamide]
grade 3 adverse events or higher ([5]; human, in vivo): approximately 25%
most common side effects ([5]; human, in vivo): fatigue, hypertension, diarrhea, and weight loss
selectivity and potency against AR (AR): higher selectivity and potency against AR
brain penetrance [6]: reductions in brain penetrance

Reference: publication PMC10582333 (Frontiers in Pharmacology, 2023)
